One assay has as its target T1, dTAG-HA SLC38A2 (Homo sapiens, UniProt Q96QD8+Q96SW2).
T1 construct: expressed in transfected cells
Kind of assay: Targeted degradation of dTAG-tagged SLC38A2 (western blot). The format is cell-based. The conditions noted are these: HAP1, 0.5 µM; for time to degradation of the glycosylated form (upper band) of dTAG-HA SLC38A2: time course. As for the experimental part: (A) HAP1 cells expressing dTAG-HA SLC38A9, 38A2, or 38A1 were treated with 0.5 µM dTAG13 for 16, 24 or 48 hours.
(§1) SLC1A5, SLC2A1, SLC2A3, SLC16A1, SLC38A1, SLC38A2 were obtained as gateway-compatible pENTR/pDONR vectors from the Harvard PlasmID Repository. SLC39A7 was obtained from Dharmacon, GE Healthcare. The following vectors were synthesized by Genescript: SLC4A4, SLC7A3, SLC38A9, SLC25A1, SLC9A1, SLC9A2, SLC9A3, SLC9A4, SLC9A5, SLC9A6, SLC9A7, SLC9A8, and SLC9B2. SLC30A9, SLC33A1, SLC35B2, SLC25A26, and MTCH2 were a gift from the RESOLUTE consortium. cDNAs were transferred into gateway-compatible lentiviral expression vectors: pLX305 dTAG vectors (Addgene #91797/8) or pRRL Strep-HA (described previously43, EF1a promotor driven expression) using LR recombination (ThermoFisher Scientific). For the generation of lentiviral stable overexpression cells, HEK293T cells were transfected with psPAX2 (Addgene #12260) and pMD2.G (Addgene #12259) and expression vectors using polyethylenimine (PEI). 12 hours post transfection medium was replaced with fresh medium. The medium, containing the virus, was harvested 48 hours later, filtered (0.45 µm), supplemented with 5 µg/ml Polybrene (Hexadimethrine bromide, Sigma) and added to target cells. […]
(§2) For immunoblotting, whole cell extracts were prepared using RIPA lysis buffer (25 mM Tris/HCl pH 7.6, 150 mM NaCl, 1% NP-40, 1% sodium deoxycholate, 0.1% SDS, EDTA-free protease inhibitor (Roche) and phosphatase inhibitors 2+3 (Sigma- Aldrich)). […] Protein extracts were quantified and normalized using the BCA assay (Thermo Scientific). […]
SLCs were ectopically expressed as fusions to a mutated FKBP domain, also known as the dTAG system. […] Each of the tested SLCs was stably expressed in HAP1 cells, and subcellular localization was assessed by immunofluorescence microscopy (FIG. 1B). […]

The target in the next assay is T2, dTAG-HA SLC2A3 (Homo sapiens, UniProt P11169+Q96SW2).
T2 construct: expressed in transfected cells
T2 sequence (P11169 with tags, fused parts or gaps): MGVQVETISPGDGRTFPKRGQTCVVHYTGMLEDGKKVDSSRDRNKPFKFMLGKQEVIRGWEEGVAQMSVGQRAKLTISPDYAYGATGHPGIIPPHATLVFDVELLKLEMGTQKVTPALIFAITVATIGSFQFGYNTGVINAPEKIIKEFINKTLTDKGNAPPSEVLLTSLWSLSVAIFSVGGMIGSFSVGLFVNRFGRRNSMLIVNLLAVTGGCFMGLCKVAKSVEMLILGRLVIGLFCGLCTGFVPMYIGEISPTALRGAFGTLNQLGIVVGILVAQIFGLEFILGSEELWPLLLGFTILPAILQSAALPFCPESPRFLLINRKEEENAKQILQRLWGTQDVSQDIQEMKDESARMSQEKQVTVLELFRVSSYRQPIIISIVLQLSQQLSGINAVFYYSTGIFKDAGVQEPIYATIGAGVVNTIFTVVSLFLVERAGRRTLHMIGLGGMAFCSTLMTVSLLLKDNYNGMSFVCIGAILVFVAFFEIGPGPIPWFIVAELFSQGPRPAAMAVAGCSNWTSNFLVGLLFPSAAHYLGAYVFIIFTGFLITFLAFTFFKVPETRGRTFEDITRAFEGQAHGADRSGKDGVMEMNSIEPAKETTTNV
T2 sequence (Q96SW2 whole entry): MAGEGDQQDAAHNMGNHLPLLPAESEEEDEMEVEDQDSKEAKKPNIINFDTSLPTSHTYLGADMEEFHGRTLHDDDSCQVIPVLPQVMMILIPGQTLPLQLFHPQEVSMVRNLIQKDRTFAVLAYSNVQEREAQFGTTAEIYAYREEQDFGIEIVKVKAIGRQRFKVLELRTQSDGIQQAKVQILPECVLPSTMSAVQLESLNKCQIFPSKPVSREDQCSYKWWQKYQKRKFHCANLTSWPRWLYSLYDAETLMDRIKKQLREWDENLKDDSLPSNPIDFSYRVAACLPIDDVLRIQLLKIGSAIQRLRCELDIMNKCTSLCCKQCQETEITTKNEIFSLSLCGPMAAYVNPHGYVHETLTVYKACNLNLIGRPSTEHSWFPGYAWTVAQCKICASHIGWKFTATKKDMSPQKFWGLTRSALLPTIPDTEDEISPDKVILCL
T2 sequence (Q16531 whole entry partner): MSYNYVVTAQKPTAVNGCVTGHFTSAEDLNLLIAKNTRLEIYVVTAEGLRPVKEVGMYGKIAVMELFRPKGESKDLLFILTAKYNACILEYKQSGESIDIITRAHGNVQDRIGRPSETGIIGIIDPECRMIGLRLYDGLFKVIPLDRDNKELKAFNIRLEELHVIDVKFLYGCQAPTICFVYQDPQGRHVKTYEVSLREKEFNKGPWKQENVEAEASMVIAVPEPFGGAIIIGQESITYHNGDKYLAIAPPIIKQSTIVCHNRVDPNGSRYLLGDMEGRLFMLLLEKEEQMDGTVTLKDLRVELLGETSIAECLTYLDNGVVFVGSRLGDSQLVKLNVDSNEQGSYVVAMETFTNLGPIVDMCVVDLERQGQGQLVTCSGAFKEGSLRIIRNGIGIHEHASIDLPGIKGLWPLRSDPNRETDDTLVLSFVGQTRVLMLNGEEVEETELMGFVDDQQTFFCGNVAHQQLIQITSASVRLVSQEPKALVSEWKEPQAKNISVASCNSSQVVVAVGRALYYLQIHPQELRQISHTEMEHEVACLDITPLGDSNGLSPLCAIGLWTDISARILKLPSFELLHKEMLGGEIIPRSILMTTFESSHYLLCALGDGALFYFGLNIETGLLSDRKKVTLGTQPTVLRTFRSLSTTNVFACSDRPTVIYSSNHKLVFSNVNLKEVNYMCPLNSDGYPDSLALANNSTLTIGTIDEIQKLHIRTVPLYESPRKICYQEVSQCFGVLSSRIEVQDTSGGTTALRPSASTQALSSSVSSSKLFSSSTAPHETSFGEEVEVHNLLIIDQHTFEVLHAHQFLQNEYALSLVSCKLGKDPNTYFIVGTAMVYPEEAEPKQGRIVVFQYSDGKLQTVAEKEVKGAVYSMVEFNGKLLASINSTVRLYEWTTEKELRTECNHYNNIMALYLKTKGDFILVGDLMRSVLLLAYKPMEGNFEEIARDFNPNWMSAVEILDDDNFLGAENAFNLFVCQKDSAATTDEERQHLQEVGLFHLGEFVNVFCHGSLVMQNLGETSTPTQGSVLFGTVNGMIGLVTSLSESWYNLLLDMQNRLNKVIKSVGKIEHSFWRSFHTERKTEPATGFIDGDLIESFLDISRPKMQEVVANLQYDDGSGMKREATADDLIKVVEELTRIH
Kind of assay: Targeted degradation of dTAG-tagged SLC2A3 (western blot). The assay is classed as cell-based. The protocol: (C)HAP1 cells expressing dTAG-HA SLC1A5, 2A3, 30A9, 35B2, MTCH2, and 33A1 were treated for 24 hours with 0.5 µM of dTAG7 or dTAG13, as indicated. HAP1 cells expressing dTAG-HA SLC2A1 and 16A1 were treated for 24 hrs with 0.5 µM of dTAG7. HAP1 cell lines expressing dTAG-HA SLC39A7, dTAG-HA SLC4A4, and SLC7A3-dTAG-HA were treated for 48 hrs with 0.5 µM of dTAG13.
as §1, §2
SLCs were ectopically expressed as fusions to a mutated FKBP domain, also known as the dTAG system. […]
(In western blotting, separated proteins are transferred to a membrane and probed.)

T1 sequence (Q96QD8 with tags, fused parts or gaps): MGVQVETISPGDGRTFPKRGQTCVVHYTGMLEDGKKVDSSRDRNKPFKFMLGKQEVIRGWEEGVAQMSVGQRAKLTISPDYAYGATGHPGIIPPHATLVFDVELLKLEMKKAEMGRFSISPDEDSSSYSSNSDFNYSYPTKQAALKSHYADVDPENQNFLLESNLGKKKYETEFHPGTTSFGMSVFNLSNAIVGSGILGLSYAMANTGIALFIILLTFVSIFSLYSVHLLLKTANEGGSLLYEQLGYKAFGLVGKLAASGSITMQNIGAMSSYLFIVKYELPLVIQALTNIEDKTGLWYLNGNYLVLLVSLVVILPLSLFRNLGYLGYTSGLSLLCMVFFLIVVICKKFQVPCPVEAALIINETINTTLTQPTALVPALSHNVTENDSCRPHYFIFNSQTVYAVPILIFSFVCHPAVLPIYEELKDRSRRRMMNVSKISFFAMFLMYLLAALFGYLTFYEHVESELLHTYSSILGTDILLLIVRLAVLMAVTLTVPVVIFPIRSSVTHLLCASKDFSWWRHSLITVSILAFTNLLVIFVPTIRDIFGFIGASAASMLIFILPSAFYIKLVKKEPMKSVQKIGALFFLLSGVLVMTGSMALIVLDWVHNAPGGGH
T1 sequence (Q96SW2 whole entry): as the sequence (Q96SW2 whole entry) above
T1 sequence (Q16531 whole entry partner): as the sequence (Q16531 whole entry partner) above

Take `CC[C@H](C(=O)N1CCCC[C@H]1C(=O)O[C@H](CCc1ccc(OC)c(OC)c1)c1ccccc1OCC(=O)NCCCOCCOCCOCCCNC(=O)COc1cccc2c1C(=O)N(C1CCC(=O)NC1=O)C2=O)c1cc(OC)c(OC)c(OC)c1` (stereo partly drawn) [dTAG7]: the “time to degradation of the glycosylated form (upper band) of dTAG-HA SLC38A2” value at dTAG-HA SLC38A2 is recorded as “within five hours”. Moreover, on dTAG-HA SLC2A3 (HAP1, dTAG-HA SLC2A3, 0.5 µM), the “initiation of degradation (time course)” value was no more than 6 h.
For the compound `CC[C@H](C(=O)N1CCCC[C@H]1C(=O)O[C@H](CCc1ccc(OC)c(OC)c1)c1ccccc1OCC(=O)NCCCCCCOc1cccc2c1C(=O)N(C1CCC(=O)NC1=O)C2=O)c1cc(OC)c(OC)c(OC)c1` (stereo partly drawn) [dTAG13], the “time to degradation of the glycosylated form (upper band) of dTAG-HA SLC38A2” value on dTAG-HA SLC38A2 is on record as “within five hours”. Moreover, the “degradation of the target SLC” value at dTAG-HA SLC38A2 (dTAG-HA SLC38A2, 16, 24 or 48 hours) is recorded as “Near-complete degradation”. Besides, the “degradation of dTAG-HA SLC2A3” value at dTAG-HA SLC2A3 (HAP1, LS180 and HCT15 cells, 0.5 µM, 72 hours) is recorded as “completely degraded”. At dTAG-HA SLC2A3 (two HAP1 cell lines, 24 hours), the “degradation of SLC2A3 tagged on the N- or C-terminus with dTAG-HA” value is given as “degraded in both”.

For the origin of these results see patent US20230241226A1, “COMPOUNDS FOR TARGETED DEGRADATION OF CARRIER PROTEINS AND USES THEREOF” (CeMM - Forschungszentrum für Molekulare Medizin GmbH, priority 2019, published 2023).
